The data set concerns Human ciliated epithelium cells.

Structures are written as SMILES.

Protocol: A cytotoxic damage of these cells which would cause a restriction of the mucociliar clearance can be determined by a detectable decrease of the ciliary vibration.
Human ciliated epithelium cells were analysed by an in-vitro method which enables the determination of the ciliary activity or ciliary vibration. The corresponding cells were exposed and incubated with 100 je.1 test substance at a temperature of 37 C. After an incubation period of 5 minutes the ciliary vibration was measured.
By using this in-vitro method a nutriant solution (Dulbeco) as standard, a 0.2% chlorohexidine solution (typical antiseptic agent), conventional polyvidone iodine solutions (Betaisodona) of different concentrations (5.0%, 2.5% and 1.25% PVP-iodine) and a liposomal solution containing 4.5% of PVP-iodine were tested.

As to `[H]/N=C(\N/C(=N/[H])NCCCCCCNC(=N)NC(=N)Nc1ccc(Cl)cc1)Nc1ccc(Cl)cc1` [chlorohexidine], the ciliary vibration result is “decrease of the measured ciliary vibration in comparison to the standard”.

Source of the values: patent EP1449521A1, “Use of PVP-iodine liposomes for treatment of atopic dermatitis” (EURO-CELTIQUE S.A., priority 2003, dated 2004).
